The test system of one series is U937, Jurkat, Namalwa. Briefly: Cell growth, cell counts (trypan blue exclusion), three cell lines. It is filed as cell-based, human. The conditions noted are these: 10 µM, twice every 48 h, four days. The procedure: • Figure 1 Fluorescence Anisotropy Assay. Average anisotropy values: (open square) binding assay for increasing concentrations of Bcl-XL at a fixed concentration of fluorescent Bak-BH3 peptide. […] The error bars represent standard deviations observed from triplicate experiments. • Figure 2 072RB: cell growth effects. Panel A: Cell growth of U937 cell line treated for four days every 24 h at a 1 µM 072RB concentration and every 48 h at 3, 5, 10 and 30 µM 072RB concentrations. U937 controls at day 4, cell number: 350,000 ±50,000. Number of cells seeded at day 0: 20,000. Arrows indicate treatment time. […] All cells were counted in a Burker chamber and values are expressed as percentage of the untreated control cell number. Only living cells identified by trypan blue exclusion staining were counted. […] Flow cytometry measurements of DNA content (evaluated by propidium iodide (PI) fluorescence intensity) and physical cell side-scattering (evaluated by SSC) in U937 cells treated with Int and 072RB at 10 µM, twice each 48h. […] Three main cell populations can be observed in the bivariate PI/SSC plots, one with low SSC and normal DNA content (that accounts for "live" cells in culture), another with high SSC and normal DNA content (cells undergoing "early stage of apoptosis") and another one with lower PI fluorescence (cells at "late stage of apoptosis" and debris). […]

Series [1] concerns U937 and Jurkat cell lines. Briefly: Detection of mitochondrial permeability transition (DiOC6 fluorescence). The settings on record: two cell lines, 4 days, 5 and 10 µM, two independent experiments. Format: cell-based, human.
Series [2] in a line: Circular dichroism, relative content of secondary structure elements. The settings on record: CDSSTR deconvolution. Further details: key to α-Helix / β-Strands / β-Turns / Random: relative content as fraction, from CDSSTR deconvolution. Format: physicochemical. The procedure: Circular dichroism (CD) spectra in the far-UV region (190-260 nm) were collected on a Jasco J-715 spectropolarimeter using a 0.1 cm path-length cuvette. Temperature was kept at 25°C by a Peltier device. Peptide concentration was determined from the absorption of the aromatic residues at 280 nm.
Peptides solutions: Bim-BH3Y and Bim-BH3YA2Aib were suspended in water and potassium hydroxide was added up to complete solubilization. 072RB was dissolved in water. Concentration of stock solutions was about 0.1 mg/ml. For circular dichroism measurements, stock solutions were diluted in 10 mM potassium phosphate buffer, pH 7.
The relative content of secondary structure elements was calculated with the deconvolution program CDSSTR [31] (Table 2). […] 072RB has the highest helical content in the set examined here (0.30 α-helix percent).

[3] abbreviates: relative content, 10 mM potassium phosphate buffer, pH 7, 25°C.

Results on one compound are retold here after patent EP1985629A1, “Pro-apoptotic molecules and therapeutic uses thereof” (UNIVERSITA DEGLI STUDI DI GENOVA, priority 2007, dated 2008).

Where a SMILES comes first, the peptide text is derived from it. [ ]: non-standard residue; d: D form. Aib = CC(C)(N)C(=O)O

`CC[C@H](C)[C@H](NC(=O)[C@H](CCCNC(=N)N)NC(=O)[C@H](CCCNC(=N)N)NC(=O)[C@H](CC(C)C)NC(=O)[C@H](CCC(=O)O)NC(=O)[C@H](CCC(N)=O)NC(=O)C(C)(C)NC(=O)[C@@H](NC(=O)[C@H](Cc1ccc(O)cc1)NC(=O)[C@@H](NC(=O)[C@H](CCC(=O)O)NC(=O)[C@@H]1CCCN1C(=O)[C@H](CCCNC(=N)N)NC(=O)[C@H](CCSC)NC(=O)[C@@H](N)CC(=O)O)[C@@H](C)CC)[C@@H](C)CC)C(=O)NCC(=O)N[C@@H](CC(=O)O)C(=O)N[C@@H](C)C(=O)N[C@@H](Cc1ccccc1)C(=O)N[C@@H](CC(N)=O)C(=O)NC(C)(C)C(=O)N[C@@H](Cc1ccc(O)cc1)C(=O)N[C@@H](CCCCN)C(=O)N[C@@H](CCCCN)C(=O)N[C@@H](Cc1c[nH]c2ccccc12)C(=O)N[C@@H](CCCCN)C(=O)N[C@@H](CCSC)C(=O)N[C@@H](CCCNC(=N)N)C(=O)N[C@@H](CCCNC(=N)N)C(=O)N[C@@H](CC(N)=O)C(=O)N1CCC[C@H]1C(=O)N[C@@H](Cc1ccccc1)C(=O)N[C@@H](Cc1c[nH]c2ccccc12)C(=O)N[C@H](C(=O)N[C@@H](CCCCN)C(=O)N[C@H](C(=O)N[C@@H](CCC(N)=O)C(=O)N[C@@H](CCCNC(=N)N)C(N)=O)[C@@H](C)CC)[C@@H](C)CC` [Peptide 072RB] (H-DMRPEIYI[Aib]QELRRIGDAFN[Aib]YKKWKMRRNPFWIKIQR-NH2; N-terminus and C-terminus assumed): the “cell growth compared to control cultures” value in the series on U937, Jurkat, Namalwa is on record as “progressive decrease of cell growth”. Besides, the “MPT (reduced DiOC6 fluorescence)” value in series [1] was “clear MPT effects”. Further, in series [2], the “relative content of helices” value is 0.30 α-helix percent. In series [2] (setting [3]), this compound had a Random of 0.42, a α-Helix of 0.30, a β-Strands of 0.12 and a β-Turns of 0.15.
